Laboratory results: patent US8809315B2, “Combination medicaments for treating bacterial infections” (Basilea Pharmaceutica AG, priority 2007, dated 2014)

Assays:
Assay in all cases: MIC, broth microdilution (NCCLS M7-A6)
Assay type in all cases: cell-based
[1] = test system: Achromobacter (formerly Alcaligenes) xylosoxidans QK3/96 [DSM 18991]; details: A. xylosoxidans QK3/96; combinations of equal weights; IsoSensiTest Broth + 16 μg/mL 2,2'-bipyridyl
Description: (§1) Antimicrobial activity of the compounds and of their combinations is determined against a selection of organisms according to standard procedures described by the National Committee for Clinical Laboratory Standards (NCCLS document M7-A6). […] In all cases the final concentration of DMSO incubated with the bacteria is less than or equal to 1%. […] Plates are incubated overnight at an appropriate temperature (30° C. or 37° C.) and optical densities assessed by eye. The MIC value is defined as the lowest compound concentration completely inhibiting visible growth of the test organism. Synergism tests are performed under the same conditions as described above but with two antimicrobial agents dispensed in checkerboard format [Isenberg H D (1992) Synergism testing: Broth microdilution checkerboard and broth macrodilution methods. In: Clinical Microbiology Procedures Manual vol. 1. Washington, D.C.: American Society for Microbiology. […] The strains used are: Pseudomonas aeruginosa 6067 (Accession number at the DSMZDeutsche Sammlung von Mikroorganismen and Zellkulturen GmbH, Inhoffenstr. 7 B, D-38124 Braunschweig: […] (DSM 18988), Achromobacter (formerly Alcaligenes) xylosoxidans QK3/96 (DSM 18991), Enterobacter aerogenes Zayakosky 5 (DSM 18992).

[2] = test system: Enterobacter aerogenes Zayakosky 5 [DSM 18992]; details: E. aerogenes Zayakosky 5; combinations of equal weights; IsoSensiTest Broth + 16 μg/mL 2,2'-bipyridyl
Description: as §1

[3] = test system: Pseudomonas aeruginosa (67/2B)2R.A. [DSM 18988]; details: P. aeruginosa (67/2B)2R.A.; combinations of equal weights; IsoSensiTest Broth + 16 μg/mL 2,2'-bipyridyl
Description: as §1

[4] = test system: Pseudomonas aeruginosa 6067 [DSM 18987]; details: P. aeruginosa 6067; combinations of equal weights; IsoSensiTest Broth + 16 μg/mL 2,2'-bipyridyl
Description: as §1

SMILES	Minimum Inhibitory Concentration [1] [mg/L]	Minimum Inhibitory Concentration [2] [mg/L]	Minimum Inhibitory Concentration [3] [mg/L]	Minimum Inhibitory Concentration [4] [mg/L]
C[C@H]1[C@H](NC(=O)/C(=N\OC(C)(C)C(=O)O)c2csc(N)n2)C(=O)N1S(=O)(=O)O [Aztreonam, (Z)-2-[[[(2-amino-4-thiazolyl)[[(2S,3S)-2-methyl-4-oxo-1-sulfo-3-azetidinyl]-carbamoyl]methylene]amino]oxy]-2-methylpropionic acid]	>64	64	4	16
C[C@H]1[C@H](NC(=O)/C(=N\OCc2cc(=O)c(O)cn2O)c2cccs2)C(=O)N1S(=O)(=O)O [Compound A, (3S)-trans-3-[(E)-2-(2-thienyl)-2-{(1,5-dihydroxy-4-pyridon-2-ylmethoxy)imino}-acetamido]-4-methyl-2-oxazetidine-1-sulfonic acid]	>64	>64	>64	>64
C[C@H]1[C@H](NC(=O)/C(=N/OCc2cc(=O)c(O)cn2O)c2cccs2)C(=O)N1S(=O)(=O)O [Compound B]	>64	>64	>64	>64
CC1(C)[C@H](NC(=O)/C(=N\OCc2cc(=O)c(O)cn2O)c2csc(N)n2)C(=O)N1OS(=O)(=O)O [Compound of formula I, (3S)-3-{(2Z)-2-(2-amino(1,3-thiazol-4-yl))-3-[(1,5-dihydroxy-4-oxo(2-hydropyridyl))methoxy]-3-azaprop-2-enoylamino}-4,4-dimethyl-2-oxoazetidinyl hydroxysulfonate]	16	16	32	16
C[C@@H](O)[C@H]1C(=O)N2C(C(=O)O)=C(S[C@@H]3CN[C@H](CNS(N)(=O)=O)C3)[C@H](C)[C@H]12 [Doripenem]	16	8	4	16
C[C@@H](O)[C@H]1C(=O)N2C(C(=O)O)=C(S[C@@H]3CN[C@H](C(=O)Nc4cccc(C(=O)O)c4)C3)[C@H](C)[C@H]12 [Ertapenem]	>32	>32	>32	>32
C[C@@H](O)[C@H]1C(=O)N2C(C(=O)O)=C(SCCN=CN)C[C@H]12 [Imipenem]	4	32	16	4
C[C@@H](O)[C@H]1C(=O)N2C(C(=O)O)=C(S[C@@H]3CN[C@H](C(=O)N(C)C)C3)[C@H](C)[C@H]12 [Meropenem]	16	16	4	16
